Settings: Fluid (supercritical or subcritical phases), Falling or rolling sphere viscometry

FCC(F)(F)F [1,1,1,2-tetrafluoroethane]
viscosity [mPa·s]
Settings	10000 kPa	25000 kPa	50000 kPa	100000 kPa	150000 kPa	200000 kPa	250000 kPa	300000 kPa	350000 kPa	400000 kPa
293.15 K	0.255	0.3008	0.3631	0.5045	0.6605	0.8252	–	–	–	–
298.15 K	0.2368	0.2795	0.3435	0.4988	0.6459	0.819	0.9773	–	–	–
313.15 K	0.207	0.2461	0.3127	0.4302	0.5758	0.7155	0.8952	1.069	1.25	1.446
323.15 K	0.1805	0.2229	0.2852	0.3946	0.502	0.6252	0.7651	0.914	–	–
348.15 K	0.1405	0.1783	0.2343	0.3327	0.43	0.5368	0.6421	0.7647	0.8894	1.04
373.15 K	–	0.1531	0.2038	0.2931	0.3764	0.4649	0.5564	0.6468	0.7557	0.8715
398.15 K	–	–	0.1725	0.2544	0.3243	–	–	–	–	–
438.15 K	–	–	0.1458	0.2131	0.2789	0.3408	0.3977	0.4612	–	–

Source: the NIST ThermoML archive (doi:10.1007/s10765-011-0978-y)
